Read-outs that look alike come from different tables or passages of the source.

The test system of data set [1] is SALL4 interaction with HDAC1. Nature of the data set: Co-immunoprecipitation of endogenous SALL4 with HDAC1 after peptide treatment (SNU-398). Type of data set: binding, human. As to conditions: SNU-398, anti-SALL4 IP. The source says:
FIGS. 9A-9E: The wild type peptide blocks SALL4 repression of PTEN. (9A) Flow cytometry analysis on SNU-398 cells treated with Pep-1 carrier peptide alone (top panel), wild type peptide alone (middle panel), or Pep-1 carrier+peptide (lower panel). […] (9B) Confocal images of the distribution of FITC-labeled peptide in SNU-398 cells treated as shown in (9A). (9C) The endogenous SALL4 interaction with HDAC is blocked by wild type (wt) but not scrambled (scr) peptide. SALL4 was immunoprecipitated from SNU-398 nuclear extracts (1×10^6 cells) pre-treated with wild type or scrambled peptides as indicated using an anti-SALL4 antibody. Immunoprecipitates were analyzed by Western blot using HDAC1 (top panel) or SALL4 (lower panel) antibodies. […] Equal amount of SALL4 protein was present in all samples. In Lane 4 (“10% input”), 10% of the amount of nuclear extract used in lanes 1-3 was subjected to Western blot analysis without immunoprecipitation. […] Enrichment with control IgG was set at 1.
Furthermore, whether wt peptide can compete with endogenous SALL4 in interacting with HDAC1 was tested. SNU-398 cells were treated with wt or Scr peptides. […] This effect was not observed with the SNU-398 cells treated with Scr peptide and HDAC1 was still present in the endogenous SALL4 pull-down (FIG. 2).
Next tested was whether wild type peptide could compete for the interaction of endogenous SALL4 with HDAC1. SNU-398 cells were treated with wild type or scrambled peptides along with the peptide carrier Pep-1.

A further data set deals with MCF7 cells. Description: Cell viability assay (MTT). To be noted: MCF7, 48-72 h. Type of data set: cell-based. How it is done: Cell viability assay (MTT) (Invitrogen) was performed according to the manufacturer's instructions. Briefly—10000 cells were seeded in 100 ul medium in 96 well plates. The next day cells were treated as indicated on the figures. At the designated time after the treatment 20 ul of 5 mg/ml MTT solution was added to each well. After 3.5 h incubation at 37 C the medium was removed and the reaction was terminated with a solution of 4 mM HCl, 0.1% Nondet P-40 (NP40) all in isopropanol in dark on orbital shaker for […]. at room temperature. The absorbance was read at 590 nm with a reference filter of 620 nm in Spectromax M3 (ABI) spectrophotometer.
Multiple cell lines with or without SALL4 expression were chosen to test the biological effect(s) of this wt peptide. Wt or its control (Scr or Mut) peptide was delivered into tumor cells at various concentrations, and their effects on cells were evaluated at 48 or 72 hours post treatment by a MTT assay (Manufacture name). […] Since, as proposed herein, wt peptide can compete with SALL4 and release it from recruiting HDAC complex NuRD, the wt peptide would likely work as a HDAC inhibitor. Therefore, as a positive control, TSA, a broad HDAC inhibitor, was used in the same group of experiments along with the wt and Scr peptide.

Another data set concerns primary human AML cells. Nature of the data set: Viability / cell death of primary AML cells in culture (Annexin V/PI flow cytometry). The format is cell-based. To be noted: for cell death rate: 96 h after first treatment, Chariot (Example 1). The procedure: Whether a therapeutic effect could be achieved by using this wt peptide on primary AML samples was then tested. Ninety-six hours after the first treatment of peptides (wt, Mut, or Scr) or TSA in the primary AML cells collected from a patient, the remaining alive cells were measured by FACS analysis using Annexin V/PI staining. During the treatment the wt and control peptides (Mut or Scr) were re-introduced twice at the 24-hour and the 48-hour time points along with the Chariot (Active Motif) transfection agent. A significant effect of the wt peptide on the cell viability of primary AML cells was observed. While there was a 56% cell death rate with wt peptide treatment at the end of the fourth day, the cell death rate was only 35% in the non-treated or treated with the control peptide, and the cell death rate was 44% in cells treated with TSA (FIG. 5).
Three frozen primary AML patient samples were used for this study, and were obtained from Brigham and Women's Hospital at Boston, Mass., USA, under approved IRB protocol (No. 2011-P-000096/1). Culture conditions were adapted from a published protocol 28-31. In brief, the frozen AML samples were incubated in RPMI1640 medium without serum for 1 to 3 h after thawing and DNA fragments from dead cells were removed by washing. After three washes with the medium, 1×10^6 cells per well of 12-well plate were maintained in 1 ml of serum-free medium (StemSpan-H3000, Catalogue #09800, StemCell Technologies) supplied with StemSpan CC 100 cytokine cocktail (Catalogue #02690, StemCell Technologies) that supports 40-50% viability at 72 hours postthaw culturing based on our experience. These cells were then used for the down-regulation of SALL4 (see details below) and peptide treatment experiments.
SALL4 is critical for leukemic cell survival in the AML cell line NB4 (Yang, et al., Blood, 112:805-813 (2008)). Asked herein was whether this is also the case for primary human AML samples. Three SALL4/PTEN-expressing AML samples were selected for experiments in which cells were first tested under culture conditions that maintain/promote viability of AML cells 28-31. The SALL4-specific shRNA that has been validated in previous studies (Yang et al., PLoS One, 5:e10766 (2010); Yang, et al., Blood, 112:805-813 (2008); Yang et al., PNAS USA, 104:10494-10499 (2007)) was utilized in these AML patient samples (FIG. 11A). 48 hours after transduction, the viability of cells was determined by flow cytometry after staining with Annexin V and propidium iodide (PI). Live cells are Annexin V negative and PI negative, the double negative population. […] Furthermore, in a xenotransplant model, increased survival of leukemic cell recipient NOD/SCID/IL2rγ-null (NSG) mice following knocking down SALL4 expression in the primary AML samples was observed (FIG. 11C). Fatal AML with onset ranging from one to three months developed in all recipients receiving AML cells transduced with a scrambled control shRNA (n=7), while only 2 out of 6 mice receiving SALL4 shRNA-treated primary AML developed leukemia. While the median survival of scrambled shRNA control recipient mice (n=7) was 33 days, the median survival of SALL4 shRNA recipient mice (n=6) was 109 days (P=0.01). The transplanted leukemia disease was characterized by immature blasts with human CD45 expression in peripheral blood, bone marrow, and tissues such as liver and spleen (FIG. 11D to 11F).
Next tested was whether a therapeutic effect could be achieved by using the wild type peptide in primary human AML samples. The same SALL4/PTEN expressing primary AML samples were selected for experiments under the same culture conditions as mentioned above. Leukemic cells were subjected to three treatment regimes: peptide (wild type or scrambled), peptide plus PTEN inhibitor, or HDAC inhibitor (TSA). To assist peptide delivery into cells, a carrier agent, Pep-1 was used for all the experiments, and control treated cells were given pep-1 alone (mock). […]

Regarding “Scr peptide: same 12 amino acids as the wt peptide, but in a scrambled sequence; negative control (SRMRQKIHPKIQ) [reference compound]”, the “interaction of endogenous SALL4 with HDAC1” value in data set [1] is “not observed”; in data set [1] (listed as scrambled peptide) it was “does not affect the interaction”. For the same compound, the cell viability result in the data set with MCF7 cells is reported as “remained unaffected”; with primary human AML cells, “over 97%”. In the data set with primary human AML cells (primary AML, Annexin V/PI), the cell death rate entry was “the same value as the untreated”.
For “GATGCCTTGAAACAAGCCAAGCTACCTCA (chemistry not given here) [compound 7412, SALL4 shRNA used in primary AML cells]”, the “viability after SALL4 knock-down” value with primary human AML cells worked out at 80.9%. In addition, the “increase in cell apoptosis and cell death” value with primary human AML cells (primary AML, Annexin V/PI, after SALL4 knock-down) was found to be 2 fold.
As to `CC(/C=C/C(=O)NO)=C\[C@@H](C)C(=O)c1ccc(N(C)C)cc1` [TSA, Trichostatin A, reference compound], the cell death rate with primary human AML cells (primary AML, Annexin V/PI) is listed as 44%. The compound also yielded a cell viability with primary human AML cells (primary AML, fourth day, Pep-1 carrier, untreated set as 100 (Example 2)) of 54.7%.
“H-MSRRKQAKPQHI-OH [wt peptide, MSRRKQAKPQHI]”: in data set [1], the “interaction of endogenous SALL4 with HDAC1” value is “completely abrogated”. Further, the cell viability result with MCF7 cells is reported as “decreased cell viability”; in the data set on MCF7 cells (listed as wild type peptide), “displayed the same effect”; with primary human AML cells (human, 96 h), 55.3%. Further, in the data set on primary human AML cells (primary AML, Annexin V/PI), the cell death rate is reported as 56%.
